The text below walks through data of patent US10383955B2, “Human mast cell lines, preparation and uses” (CENTRE NATIONAL DE LA RECHERCHE SCIENTIFIQUE, priority 2011, dated 2019).

For series [1], the system named is cells of the ROSA KIT WT line. Put plainly: FcεRI and KIT expression after IL-4 treatment (flow cytometry). It is filed as cell-based, human. The note with it: IL-4 20 ng/ml for 5 days. As to the method:
Since it has been shown in the literature that interleukin-4 (IL-4) induces a decrease in KIT expression and an increase in FcεR1 expression by normal human mast cells, the inventors wanted to verify whether this phenomenon could also be observed on the ROSA KIT WT line. For this, they used the following technique: • 10 ml of cells in culture at approximately 2×10^5 cell/ml are used for each tube. • The cells are centrifuged and the pellet is taken up in 10 ml of new culture medium and then the cells are treated with IL-4 (20 ng/ml) (R&D) for 5 days. • The cells are centrifuged in order to remove the culture medium. • The pellets are taken up in 100 μl of PBS+1% FCS, and incubated for 45 min at +4° C. in the presence of anti-human IgE antibody coupled to FITC (20 μl/l million cells (Merck Bioscience)), or in the presence of anti-human KIT antibody coupled to APC (20 μl/l million cells) (Biolegend). • Two rinses are carried out in 3 ml of PBS, 0.1% FCS, and then the tubes are centrifuged. • The pellets are collected in 300 μl of PBS, 0.1% FCS.
The reading is carried out by FACS (BD FACSCalibur).
Background: Flow cytometry measures light scatter and fluorescence of single cells or particles in a stream.

For series [2], the system named is ROSA KIT WT, ROSA KIT Delta 417-419 insY and KIT D816V lines. Put plainly: Membrane marker expression in the three ROSA lines (flow cytometry). Type of series: cell-based, human. The note with it: IL-4 20 ng/ml. The source says: Moreover, the expression of certain membrane markers present on the cells of the ROSA KIT Delta 417-419 insY and KIT D816V lines, optionally present in the presence of SCF, was studied by flow cytometry, this expression being compared with that of the cells of the ROSA KIT WT line. The results obtained (presented in FIG. 12) were the following: • the cells of the ROSA KIT Delta 417-419 insY and KIT D816V lines spontaneously express (in the absence of SCF) more CD38, CD203c and KIT than the cells of the ROSA KIT WT line, this increase in expression being completely abolished in the presence of SCF, • the cells of the KIT D816V line express more CD54 than the cells of the other two lines, whether in the absence or in the presence of SCF, • the cells of the KIT D816V line express more FcεR1 than the cells of the other two lines in the absence of SCF, this phenomenon being abolished by adding SCF, • the cells of the ROSA KIT Delta 417-419 insY and KIT D816V lines express, in the presence of SCF, more CD63 than the cells of the ROSA KIT WT line, this increase in expression being completely abolished in the absence of SCF, • the expression of CD53 and of FcεR1 is increased in the 3 lines by treatment with IL-4 (20 ng/ml), and • the expression of KIT is decreased in the three lines by treatment with IL-4 (20 ng/ml).

The subject of the next series is ROSA KIT WT line. Put plainly: Proliferation of ROSA KIT WT line with tyrosine kinase inhibitors (WST-1). It is filed as cell-based. The note with it: 1 μM/l, 48 hours, medium with human SCF 80 ng/ml, relative to DMSO 0.1%. On the procedure:
(§1) Finally, the inventors evaluated the effect of two molecules which inhibit tyrosine kinase activity, imatinib and dasatinib (both supplied by Sequoia Research), on the proliferation of the 3 ROSA KIT WT, ROSA KIT D816V and ROSA KIT Delta 417-419 insY lines. To do this, the cells were seeded at a starting concentration of 3×10^5 cells per ml in 96-well plates (100 μl per well) and incubated at 37° C. in an incubator (5% CO2 in air) for 48 hours in the presence of 1 μM/l of imatinib or of dasatinib (in DMSO brought to a final concentration of 0.1%) or in the presence of DMSO alone (0.1% final concentration) in their usual culture medium (containing human SCF at 80 ng/ml for the ROSA KIT WT line but without SCF for the ROSA KIT D816V and ROSA KIT Delta 417-419 insY lines). At the end of this incubation, 10 μl of WST-1 (Roche Applied Science) are added to each well and the cells are incubated for a further 3 hours in an incubator at 37° C. The number of live cells is then measured for each condition by reading the absorbance at 450 nm using a Multiskan MS plate reader (Thermo LabSystems).
(§2) The results obtained for each line (presented in FIG. 15) are expressed as % of live cells (the condition DMSO alone at 0.1% final concentration being considered to contain 100% of live cells).

Series [3] deals with ROSA KIT Delta 417-419 insY line. Put plainly: Proliferation of ROSA KIT Delta 417-419 insY line with tyrosine kinase inhibitors (WST-1). Type of series: cell-based, human. The note with it: 1 μM/l, 48 hours, without SCF, relative to DMSO 0.1%. As to the method:
as §1, §2
A general note: Tetrazolium assays rely on reduction of a dye to a coloured formazan, in cell work by metabolically active cells.

The test system of the next series is ROSA KIT D816V line. Put plainly: Proliferation of ROSA KIT D816V line with tyrosine kinase inhibitors (WST-1). It is filed as cell-based, human. The note with it: 1 μM/l, 48 hours, without SCF, relative to DMSO 0.1%. On the procedure:
as §1, §2

In series [4] the test system is HMC-1, subclone HMC-1.1 (KIT V560G). The note with it: juxtamembrane KIT V560G mutation; cited from earlier work.
The test system of series [5] is subclone HMC-1.2 (KIT V560G and D816V). The note with it: two KIT mutations (V560G and D816V); cited from earlier work.
For another series, the target named is KIT D816V mutation (Homo sapiens, UniProt P10721, D816V). The note with it: cited from earlier work.
Series [6] relates to cells of the ROSA KIT WT line. Put plainly: β-hexosaminidase release after stimulation. The note with it: cells treated with IL-4 20 ng/ml and IgE 2 μg/ml; anti-IgE 5 μg/ml or calcium ionophore 1 μmol/l, 1 hour. Type of series: cell-based, human. On the procedure:
The activation of the cells of the ROSA KIT WT line was also measured by determining the released β-hexosaminidase activity. ROSA cells treated with IL-4 (20 ng/ml) and IgE (2 μg/ml) are subsequently activated for 1 hour at 37° C. in the presence of 5% CO2, with the anti-IgE antibody (5 μg/ml) or with the calcium ionophore (Cai) (1 μmol/l).
The cells are then centrifuged and the supernatants are recovered and frozen at −80° C. until the time of the assay. The cells are then lysed. The β-hexosaminidase activity is measured in the supernatant and also in the cell pellet as described by Schwartz and Austen, J Invest Dermatol., 74, 349-353, 1980.
The hydrolysis of p-nitrophenyl-2-acetamido-2-deoxy-β-D-glucopyranoside (or 4-nitrophenyl-N-acetyl-β-D-glucosaminide) by β-hexosaminidase leads to the release of a chromophore product: p-nitrophenol. The latter is measured by spectrophotometry at 405 nm. • 50 μl of p-nitrophenyl-2-acetamido-2-deoxy-β-D-glucopyranoside (Sigma) are added to 5 μl of supernatant • Incubation for 2 hours at 37° C. with stirring. • Addition of 150 μl of stop solution (7.5 g of glycine in 500 ml of H2O, pH=10.7). Reading at 405 nm.

Series [7] has as its system cells of the ROSA KIT WT line. Put plainly: Membrane CD203c expression after stimulation (flow cytometry). It is filed as cell-based, human. The note with it: cells treated with IL-4 + IgE 5 days; anti-IgE 5 or 10 μg/ml or calcium ionophore 1 μmol/l, 1 hour. On the procedure:
In order to know whether the cells of the ROSA KIT WT line can be activated by the IgE-anti-IgE antibody coupling, resulting in degranulation with immediate release of histamine and of β-hexosaminidase associated with a significant increase in membrane CD203c expression and with delayed release of TNF-alpha, cells are treated with IL-4 (20 ng/ml) and IgE (2 μg/ml) (Merck Bioscience) for 5 days and then stimulated with anti-IgE (5 or 10 μg/ml) (Biovalley) or with the calcium ionophore (Cai) (Sigma) (1 μmol/l) for 1 or 6 hours. The 1 hour supernatant and also the pellet are used to assay the histamine and to measure the expression of CD203c at the cell surface, while the TNF-alpha is measured by a specific ELISA method in the supernatant of the cells after 6 hours of stimulation.
One ml of cells treated with IL-4 (20 ng/ml) and IgE (2 μg/ml) for 5 days are washed twice with 3 ml of PBS and then again placed in culture medium at a concentration of 1×10^6 cells/ml. These cells are then stimulated with anti-IgE (5 or 10 μg/ml) or with the calcium ionophore (Cai) (1 μmol/l) for 1 hour. The cells are washed with PBS and put back into 100 μl of PBS, 1% FCS in the presence of an antibody directed against human CD203c, coupled to phycoerythrin (PE) (20 μl/l million cells) (Biolegend).

The conditions of series [8]: in therapy; cited from earlier work.

“Also recorded” adds a separate entry of the source.

Chain of KIT D816V mutation (P10721 26-976 D816V): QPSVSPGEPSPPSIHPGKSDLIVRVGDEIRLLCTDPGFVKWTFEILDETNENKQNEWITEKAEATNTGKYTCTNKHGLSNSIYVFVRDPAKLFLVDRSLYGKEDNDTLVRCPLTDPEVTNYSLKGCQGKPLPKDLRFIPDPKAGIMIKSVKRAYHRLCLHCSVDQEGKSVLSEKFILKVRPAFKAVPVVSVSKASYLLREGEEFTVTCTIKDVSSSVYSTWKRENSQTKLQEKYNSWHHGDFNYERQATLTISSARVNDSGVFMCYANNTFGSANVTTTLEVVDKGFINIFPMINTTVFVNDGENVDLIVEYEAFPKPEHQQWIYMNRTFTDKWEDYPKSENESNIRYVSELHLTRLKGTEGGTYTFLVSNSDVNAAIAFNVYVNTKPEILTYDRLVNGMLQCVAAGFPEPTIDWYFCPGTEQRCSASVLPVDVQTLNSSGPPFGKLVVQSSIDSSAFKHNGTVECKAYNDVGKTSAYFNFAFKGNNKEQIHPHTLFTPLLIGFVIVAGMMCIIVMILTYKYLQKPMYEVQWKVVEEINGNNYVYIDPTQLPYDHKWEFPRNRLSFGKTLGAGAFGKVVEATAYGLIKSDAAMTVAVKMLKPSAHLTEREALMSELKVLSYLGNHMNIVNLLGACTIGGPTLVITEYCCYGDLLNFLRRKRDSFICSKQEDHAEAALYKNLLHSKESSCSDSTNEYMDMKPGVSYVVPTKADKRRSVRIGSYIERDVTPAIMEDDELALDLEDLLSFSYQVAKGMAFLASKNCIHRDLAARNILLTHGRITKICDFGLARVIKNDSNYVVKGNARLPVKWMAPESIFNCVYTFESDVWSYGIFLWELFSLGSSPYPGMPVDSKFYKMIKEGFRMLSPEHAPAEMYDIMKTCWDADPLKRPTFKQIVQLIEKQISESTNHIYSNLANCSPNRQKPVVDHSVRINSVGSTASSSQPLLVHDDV

Consider IL-4: interleukin-4 cytokine (R&D), for which, in [1], the KIT expression entry is given as “decrease” and the “expression of the high-affinity IgE receptor” value was “increase”. Also, in series [2] (in the 3 lines), the “expression of CD53” value is “increased” and the “expression of FcεR1” value is reported as “increased”. The “expression of KIT” value in series [2] (in the three lines) is listed as “decreased”.

Regarding `Cc1ccc(NC(=O)c2ccc(CN3CCN(C)CC3)cc2)cc1Nc1nccc(-c2cccnc2)n1` [imatinib], the “inhibition of proliferation (% of live cells)” value is given as “sensitive” with ROSA KIT WT line, “sensitivity” in [3], “sensitive” in series [3] (listed as Imatinib) and “resistance; also recorded: incapable of inhibiting the proliferation” in the series with ROSA KIT D816V line. For the same compound, the “sensitivity of the line” value in series [4] is listed as “sensitive”; in [5] it was “not”. Further, the “activity on the KIT D816V mutation” value on KIT D816V mutation is “completely inactive”.

`CNc1ccc2oc(C[C@H]3O[C@@]4(CC[C@H]3C)O[C@H]([C@H](C)C(=O)c3ccc[nH]3)[C@H](C)C[C@H]4C)nc2c1C(=O)O` [calcium ionophore, calcium ionophore A23187]: in [6], the “β-hexosaminidase release, of the total enzyme content of the cells” value is listed as “up to 80%”. In addition, the “membrane CD203c expression” value in series [7] is listed as “increase”.

For the compound `Cc1nc(Nc2ncc(C(=O)Nc3c(C)cccc3Cl)s2)cc(N2CCN(CCO)CC2)n1` [dasatinib], the toxicity in humans result in series [8] is “high toxicity”.
